Test results as given in patent US10829796B2, “Bacteria identification and antimicrobial susceptibility test” (priority 2015, dated 2020).

Test system: bacteria in clinical bovine mastitis milk samples
Experiment: Combined bacteria identification and antimicrobial susceptibility test (colour of wells, MIC) on clinical bovine mastitis milk samples
Assay type: cell-based
Method: Clinical bovine mastitis milk samples were collected by a vet clinic in South Island, New Zealand. Samples were stored in the freezer for several months and shipped frozen to the testing facility. In this Example, the term “clinical” means that dairy cows had clinical symptoms of an udder infection e.g. cow behaved unusual, milk clots, swollen udder among other typical symptoms. Testing was executed in microwell plate comprising of 24 wells (3×8 wells).
In addition, 20 ul of clinical mastitis sample was added to each well with a laboratory pipette.
Abbreviations • 1. 80 ul GC+10 ul Tell: 80 ul Giolitti Cantoni base broth+10 ul Tellurite solution (1%); • 2. 80 ul TSB/Esc/Fer Cit: 80 ul Tryptic soy broth containing 0.25% Esculin and 0.125% Ammonium Ferric Citrate; • 3. 80 ul TSB/Esc/Fer Cit+10 ul Genta: 80 ul Tryptic soy broth containing 0.25% Esculin and 0.125% Ammonium Ferric Citrate+10 ul of Gentamycin solution 10 mg/ml; • 4. 80 ul McC/PR25: 80 ul MacConkey broth (single strength) containing 0.0125% phenol red; and • 5. 80 ul TSB/PR25: 80 ul Tryptic soy broth containing 0.0125% phenol red. Bacteria Identification
Columns A to C and rows 1 and 2 were used for bacteria identification. A1: coagulase positive Staph; A2: Staphylococci; B1: Strep group D; B2: Strep group D; C1: general enrichment media (gram+ and gram-bacteria); C2: coliform bacteria.
Column A3 to A8: serial dilution of benzyl penicillin as potassium. Column B3 to B8: serial dilution of ceftiofur as hydrochloride. Column C3 to C8: serial dilution of cloxacillin as sodium. Antibiotic concentrations are listed as free form ranging between 4 ug/ml to 0.05 ug/ml.
Minimum inhibitory substance concentration (MIC) is here defined as the concentration if a colour change occurs between two wells (one well remains red with drug concentration 1, the other one yellow with drug concentration 2, whereas drug concentration 1 is larger than drug concentration 2) then the MIC is the value of drug concentration 1.
Table 21 indicates the microwell plate configuration #1; Drugs: Benzylpenicillin as potassium; Cloxacillin as sodium; Ceftiofur as hydrochloride; Drug concentration in each well (A3 to C8) is based on 80 μl composition+10 μl drug solution+20 μl clinical mastitis milk sample and equivalent to listed drug concentration in μg/ml; 20 ul of clinical bovine mastitis milk sample was added to each well (A1 to C8).
In addition, each well received one drop of clinical sample from a transfer pipette which was on average about 35 mg. This was determined through weighing the well plate prior and after the addition of clinical mastitis samples. This weight was then divided by 24.
• 1. 80 ul GC+10 ul Tell: 80 ul Giolitti Cantoni base broth+10 ul Tellurite solution (1%); • 2. 80 ul TSB/Esc/Fer Cit: 80 ul Tryptic soy broth containing 0.25% Esculin and 0.125% Ammonium Ferric Citrate; • 3. 80 ul TSB/Esc/Fer Cit+10 ul Genta: 80 ul Tryptic soy broth containing 0.25% Esculin and 0.125% Ammonium Ferric Citrate+10 ul of Gentamycin solution 10 mg/ml; • 4. 80 ul McC/PR25: 80 ul MacConkey broth (single strength) containing 0.0125% phenol red; and • 5. 80 ul TSB/PR25: 80 ul Tryptic soy broth containing 0.0125% phenol red.
Columns A to C and rows 1 and 2 were used for bacteria identification. A1: coagulase positive Staph; A2: Staphylococci; B1: Strep Group D; B2: -; C1: general enrichment media (gram+ and gram-); C2: coliform bacteria.
Column A3 to A8: serial dilution of benzyl penicillin as potassium. Drug concentrations given as free form ranging between 4 ug/ml to 0.05 ug/ml. Column B3 to B8: serial dilution of ceftiofur as hydrochloride. Drug concentrations given as free form ranging between 4 ug/ml to 0.05 ug/ml. Column C3 to C8: serial dilution of cloxacillin as sodium. Drug concentrations given as free form ranging between 4 ug/ml to 0.05 ug/ml.

**Q.** With `CC1(C)S[C@@H]2[C@H](NC(=O)Cc3ccccc3)C(=O)N2[C@H]1C(=O)O` [benzyl penicillin] as the molecule, how does the “Colour of media in each well” value (ID 5 to 8, T = 0 h (prior incubation, reference), plate configuration #2, drug 1 μg/ml) read?
**A.** The value was “red”.

**Q.** What about the “Colour of media in each well” value (ID 5 to 8, T = 0 h (prior incubation, reference), plate configuration #2, drug 2 μg/ml) of the same molecule?
**A.** The value was “red”.

**Q.** What about the “Colour of media in each well” value (ID 5 to 8, T = 0 h (prior incubation, reference), plate configuration #2, drug 4 μg/ml) of the same molecule?
**A.** The value was “red”.

**Q.** And the “Colour of media in each well” value (ID 6, T = 23h, 37° C., plate configuration #2, drug 0.05 μg/ml (Table 31))?
**A.** Its value is “yellow”.

**Q.** And the “Colour of media in each well” value (ID 6, T = 23h, 37° C., plate configuration #2, drug 0.1 μg/ml (Table 31))?
**A.** The value was “yellow”.

**Q.** And the “Colour of media in each well” value (ID 6, T = 23h, 37° C., plate configuration #2, drug 0.5 μg/ml (Table 31))?
**A.** Its value is “yellow”.

**Q.** What about the “Colour of media in each well” value (ID 6, T = 23h, 37° C., plate configuration #2, drug 1 μg/ml (Table 31)) of the same molecule?
**A.** Its value is “yellow”.

**Q.** What about the “Colour of media in each well” value (ID 6, T = 23h, 37° C., plate configuration #2, drug 2 μg/ml (Table 31)) of the same molecule?
**A.** The value was “yellow”.

**Q.** And the “Colour of media in each well” value (ID 6, T = 23h, 37° C., plate configuration #2, drug 4 μg/ml (Table 31))?
**A.** Its value is “yellow”.

**Q.** What about the “Colour of media in each well” value (ID 6, T~7 h, 37° C., plate configuration #2, Table 35, drug 0.05 μg/ml) of the same molecule?
**A.** Its value is “yellow”.

**Q.** What about the “Colour of media in each well” value (ID 6, T~7 h, 37° C., plate configuration #2, Table 35, drug 0.1 μg/ml) of the same molecule?
**A.** The value was “yellow”.

**Q.** And the “Colour of media in each well” value (ID 6, T~7 h, 37° C., plate configuration #2, Table 35, drug 0.5 μg/ml)?
**A.** The value was “yellow”.

**Q.** And the “Colour of media in each well” value (ID 6, T~7 h, 37° C., plate configuration #2, Table 35, drug 1 μg/ml)?
**A.** The value was “yellow”.

**Q.** What about the “Colour of media in each well” value (ID 6, T~7 h, 37° C., plate configuration #2, Table 35, drug 2 μg/ml) of the same molecule?
**A.** The value was “yellow”.

**Q.** And the “Colour of media in each well” value (ID 6, T~7 h, 37° C., plate configuration #2, Table 35, drug 4 μg/ml)?
**A.** The value was “yellow”.

**Q.** What about the “Colour of media in each well” value (ID 6, T~11 h, 37° C., plate configuration #2, Table 35, drug 0.05 μg/ml) of the same molecule?
**A.** The value was “yellow”.

**Q.** And the “Colour of media in each well” value (ID 6, T~11 h, 37° C., plate configuration #2, Table 35, drug 0.1 μg/ml)?
**A.** The value was “yellow”.

**Q.** What about the “Colour of media in each well” value (ID 6, T~11 h, 37° C., plate configuration #2, Table 35, drug 0.5 μg/ml) of the same molecule?
**A.** Its value is “yellow”.

**Q.** And the “Colour of media in each well” value (ID 6, T~11 h, 37° C., plate configuration #2, Table 35, drug 1 μg/ml)?
**A.** The value was “yellow”.

**Q.** What about the “Colour of media in each well” value (ID 6, T~11 h, 37° C., plate configuration #2, Table 35, drug 2 μg/ml) of the same molecule?
**A.** Its value is “yellow”.

**Q.** And the “Colour of media in each well” value (ID 6, T~11 h, 37° C., plate configuration #2, Table 35, drug 4 μg/ml)?
**A.** Its value is “yellow”.

**Q.** What about the “Colour of media in each well” value (ID 6, T~23 h, 37° C., plate configuration #2, Table 35, drug 0.05 μg/ml) of the same molecule?
**A.** Its value is “yellow”.

**Q.** What about the “Colour of media in each well” value (ID 6, T~23 h, 37° C., plate configuration #2, Table 35, drug 0.1 μg/ml) of the same molecule?
**A.** The value was “yellow”.

**Q.** What about the “Colour of media in each well” value (ID 6, T~23 h, 37° C., plate configuration #2, Table 35, drug 0.5 μg/ml) of the same molecule?
**A.** The value was “yellow”.

**Q.** What about the “Colour of media in each well” value (ID 6, T~23 h, 37° C., plate configuration #2, Table 35, drug 1 μg/ml) of the same molecule?
**A.** The value was “yellow”.

**Q.** And the “Colour of media in each well” value (ID 6, T~23 h, 37° C., plate configuration #2, Table 35, drug 2 μg/ml)?
**A.** The value was “yellow”.

**Q.** And the “Colour of media in each well” value (ID 6, T~23 h, 37° C., plate configuration #2, Table 35, drug 4 μg/ml)?
**A.** Its value is “yellow”.

**Q.** And the “Colour of media in each well” value (ID 7, T = 23h, 37° C., plate configuration #2, drug 0.05 μg/ml)?
**A.** Its value is “yellow”.

**Q.** And the “Colour of media in each well” value (ID 7, T = 23h, 37° C., plate configuration #2, drug 0.1 μg/ml)?
**A.** Its value is “yellow”.

**Q.** And the “Colour of media in each well” value (ID 7, T = 23h, 37° C., plate configuration #2, drug 0.5 μg/ml)?
**A.** Its value is “red”.

**Q.** What about the “Colour of media in each well” value (ID 7, T = 23h, 37° C., plate configuration #2, drug 1 μg/ml) of the same molecule?
**A.** Its value is “red”.

**Q.** And the “Colour of media in each well” value (ID 7, T = 23h, 37° C., plate configuration #2, drug 2 μg/ml)?
**A.** Its value is “red”.

**Q.** And the “Colour of media in each well” value (ID 7, T = 23h, 37° C., plate configuration #2, drug 4 μg/ml)?
**A.** The value was “red”.

**Q.** What about the “Colour of media in each well” value (ID 8, T = 23 h, 37° C., plate configuration #2, drug 0.05 μg/ml) of the same molecule?
**A.** The value was “red”.

**Q.** And the “Colour of media in each well” value (ID 8, T = 23 h, 37° C., plate configuration #2, drug 0.1 μg/ml)?
**A.** The value was “red”.

**Q.** And the “Colour of media in each well” value (ID 8, T = 23 h, 37° C., plate configuration #2, drug 0.5 μg/ml)?
**A.** Its value is “red”.

**Q.** And the “Colour of media in each well” value (ID 8, T = 23 h, 37° C., plate configuration #2, drug 1 μg/ml)?
**A.** Its value is “red”.

**Q.** What about the “Colour of media in each well” value (ID 8, T = 23 h, 37° C., plate configuration #2, drug 2 μg/ml) of the same molecule?
**A.** The value was “red”.

**Q.** And the “Colour of media in each well” value (ID 8, T = 23 h, 37° C., plate configuration #2, drug 4 μg/ml)?
**A.** Its value is “red”.

**Q.** What about the “Colour of media in each well” value (Table 24, sample ID 2, 22 hours at 37° C., plate configuration #1, row 3 of serial dilution 4 ug/ml to 0.05 ug/ml) of the same molecule?
**A.** Its value is “orange”.

**Q.** And the “Colour of media in each well” value (Table 24, sample ID 2, 22 hours at 37° C., plate configuration #1, row 4 of serial dilution 4 ug/ml to 0.05 ug/ml)?
**A.** Its value is “orange”.

**Q.** What about the “Colour of media in each well” value (Table 24, sample ID 2, 22 hours at 37° C., plate configuration #1, row 5 of serial dilution 4 ug/ml to 0.05 ug/ml) of the same molecule?
**A.** The value was “orange”.

**Q.** What about the “Colour of media in each well” value (Table 24, sample ID 2, 22 hours at 37° C., plate configuration #1, row 6 of serial dilution 4 ug/ml to 0.05 ug/ml) of the same molecule?
**A.** Its value is “yellow”.

**Q.** What about the “Colour of media in each well” value (Table 24, sample ID 2, 22 hours at 37° C., plate configuration #1, row 7 of serial dilution 4 ug/ml to 0.05 ug/ml) of the same molecule?
**A.** Its value is “yellow”.

**Q.** And the “Colour of media in each well” value (Table 24, sample ID 2, 22 hours at 37° C., plate configuration #1, row 8 of serial dilution 4 ug/ml to 0.05 ug/ml)?
**A.** Its value is “yellow”.

**Q.** What about the MIC (clinical sample ID 1 (streptococci group D), 37° C. for 22 hours, plate configuration #1) of the same molecule?
**A.** Its MIC is 0.1 µg/mL.

**Q.** And the MIC (clinical sample ID 2 (streptococci group D, also coagulase positive Staph), 37° C. for 22 hours, plate configuration #1)?
**A.** The MIC was over 4 µg/mL.

**Q.** What about the MIC (clinical sample ID 4 (coagulase positive Staph), 37° C. for 22 hours, plate configuration #1) of the same molecule?
**A.** The MIC was over 4 µg/mL.

**Q.** And the MIC (clinical sample ID 5 (streptococci group D), 37° C. for 23 hours, plate configuration #2)?
**A.** The MIC was under 0.05 µg/mL.

**Q.** What about the MIC (clinical sample ID 7 (coagulase positive Staph), 37° C. for 23 hours, plate configuration #2) of the same molecule?
**A.** The MIC was 0.5 µg/mL.

**Q.** What about the MIC (clinical sample ID 8 (coagulase negative Staph and Streptococci group D), 37° C. for 23 hours, plate configuration #2) of the same molecule?
**A.** The MIC was under 0.05 µg/mL.
